Test results published in patent US10745398B2, “2-(het)aryl-substituted fused heterocycle derivatives as pesticides” (Bayer CropScience Aktiengesellschaft, priority 2015, dated 2020).

Key:
[1] = log P (neutral) by HPLC on reversed-phase column (C 18), EEC Directive 79/831 Annex V.A8; assay type: physicochemical; conditions: HPLC reversed-phase C 18, 55° C., neutral range pH 7.8, ammonium hydrogencarbonate/acetonitrile; for chromatographic logP: reversed-phase HPLC column (C 18)
[2] = test system: L1 larvae of the Australian sheep blowfly (Lucilia cuprina); test: Lucilia cuprina test; assay type: in vivo; conditions: application rate 100 ppm, after 2 days
Procedure: (§1) Solvent: dimethyl sulphoxide
(§2) To produce a suitable active compound preparation, 10 mg of active compound are mixed with 0.5 ml of dimethyl sulphoxide, and the concentrate is diluted with water to the desired concentration.
About 20 L1 larvae of the Australian sheep blowfly (Lucilia cuprina) are transferred into a test vessel containing minced horsemeat and the active compound preparation of the desired concentration.
After 2 days, the kill in % is determined. 100% means that all the larvae have been killed; 0% means that no larvae have been killed.

[3] = test system: adult houseflies (Musca domestica); test: Musca domestica test; assay type: in vivo; conditions: application rate 100 ppm, after 2 days
Procedure: as §1, §2
Vessels containing a sponge treated with sugar solution and the active compound preparation of the desired concentration are populated with 10 adult houseflies (Musca domestica).
After 2 days, the kill in % is determined. 100% means that all of the flies have been killed; 0% means that none of the flies have been killed.

[4] = test system: larvae of the mustard beetle (Phaedon cochleariae); test: Phaedon cochleariae - spray test; assay type: in vivo; conditions: application rate 500 g/ha, Chinese cabbage leaf discs, after 7 days
Procedure: (§3) Solvent: 78.0 parts by weight of acetone • • 1.5 parts by weight of dimethylformamide
(§4) Emulsifier: alkylaryl polyglycol ether
(§5) To produce a suitable active compound preparation, 1 part by weight of active compound is dissolved with the stated parts by weight of solvent and made up with water containing an emulsifier concentration of 1000 ppm until the desired concentration is attained. To produce further test concentrations, the preparation is diluted with emulsifier-containing water.
After 7 days, the efficacy in % is determined. 100% means that all the beetle larvae have been killed; 0% means that no beetle larvae have been killed.

[5] = test system: caterpillars of the armyworm (Spodoptera frugiperda); test: Spodoptera frugiperda - spray test; assay type: in vivo; conditions: application rate 500 g/ha, maize leaf discs, after 7 days
Procedure: as §3, §4, §5
Leaf discs of maize (Zea mays) are sprayed with an active compound preparation of the desired concentration and, after drying, populated with caterpillars of the armyworm (Spodoptera frugiperda).
After 7 days, the efficacy in % is determined. 100% means that all the caterpillars have been killed; 0% means that no caterpillar has been killed.

[6] = test system: unfed adult cat fleas (Ctenocephalides felis); test: Ctenocephalides felis - oral test; assay type: in vivo; conditions: application rate 100 ppm in citrated cattle blood, after 2 days
Procedure: as §1
To produce a suitable active compound preparation, 10 mg of active compound are mixed with 0.5 ml of dimethyl sulphoxide. Dilution with citrated cattle blood gives the desired concentration.
About 20 unfed adult cat fleas (Ctenocephalides felis) are placed into a chamber which is closed at the top and bottom with gauze. A metal cylinder whose bottom end is closed with parafilm is placed onto the chamber. The cylinder contains the blood/active compound preparation, which can be imbibed by the fleas through the parafilm membrane.
After 2 days, the kill in % is determined. 100% means that all of the fleas have been killed; 0% means that none of the fleas have been killed.

[7] = test system: engorged adult female cattle ticks (Boophilus microplus); test: Boophilus microplus - injection test; assay type: in vivo; conditions: application rate 20 μg/animal, assessed after 7 days
Procedure: as §1
To produce a suitable active compound preparation, 10 mg of active compound are mixed with 0.5 ml of solvent and the concentrate is diluted with solvent to the desired concentration.
1 μl of the active compound solution is injected into the abdomen of 5 engorged adult female cattle ticks (Boophilus microplus). The animals are transferred into dishes and kept in a climate-controlled room.
Efficacy is assessed after 7 days by laying of fertile eggs. Eggs which are not visibly fertile are stored in a climate-controlled cabinet until the larvae hatch after about 42 days. An efficacy of 100% means that none of the ticks has laid any fertile eggs; 0% means that all the eggs are fertile.

[8] = test system: green peach aphid (Myzus persicae); test: Myzus persicae - spray test; assay type: in vivo; conditions: application rate 500 g/ha, Chinese cabbage leaf discs, after 5-6 days
Procedure: Solvent: 78 parts by weight of acetone • • 1.5 parts by weight of dimethylformamide
as §4, §5
Discs of Chinese cabbage leaves (Brassica pekinensis) infested by all stages of the green peach aphid (Myzus persicae) are sprayed with an active compound preparation of the desired concentration.
After 5-6 days, the efficacy in % is determined. 100% means that all the aphids have been killed; 0% means that no aphids have been killed.

| chromatographic logP [1] | SMILES | efficacy (kill in %) [2] [%] | efficacy (kill in %) [3] [%] | efficacy (beetle larvae killed) [4] [%] | efficacy (caterpillars killed) [5] [%] | log P (neutral) [1] | efficacy (kill in %) [6] [%] | efficacy (no laying of fertile eggs) [7] [%] | efficacy (aphids killed) [8] [%] |
| --- | --- | --- | --- | --- | --- | --- | --- | --- | --- |
| 3.71 | CCS(=O)(=O)c1ccc(-n2cnn(-c3ccc(Cl)cc3Cl)c2=O)nc1-c1nc2cc(C(F)(F)F)ncc2n1C [Example I-2, 2-(2,4-Dichlorophenyl)-4-[5-ethylsulfonyl-6-[3-methyl-6-(trifluoromethyl)imidazo[4,5-c]pyridin-2-yl]-2-pyridyl]-1,2,4-triazol-3-one] | 100 | 90 | 100 | 100 |  |  |  |  |
|  | CCS(=O)(=O)c1ccc(-n2nnn(-c3ccccc3Cl)c2=O)nc1-c1nc2cc(C(F)(F)F)ncc2n1C [Example I-4] |  |  |  | 100 |  |  |  |  |
|  | CCS(=O)(=O)c1ccc(N2CCN(c3ccc(Cl)cc3)C2=O)nc1-c1nc2cc(C(F)(F)F)ncc2n1C [Example I-5] |  |  | 100 | 100 | Example I-5: logP (neutral): 3.86 ^1H-NMR(400.0 MHz, d6-DMSO): δ = |  |  |  |
|  | CCS(=O)(=O)c1ccc(-n2ccc(-c3ccc(Cl)cc3)n2)nc1-c1nc2cc(C(F)(F)F)ncc2n1C [Example I-6] | 100 |  | 100 | 83 | Example I-6: logP (neutral): 4.62 ^1H-NMR(400.0 MHz, d6-DMSO): δ = | 90 |  |  |
|  | CCS(=O)(=O)c1ccc(-n2cc(-c3ncccc3Cl)cn2)nc1-c1nc2cc(C(F)(F)F)ncc2n1C [Example I-7] | 100 |  | 100 | 100 | Example I-7: logP (neutral): 3.66 ^1H-NMR(400.0 MHz, d6-DMSO): δ = | 100 |  |  |
|  | CCS(=O)(=O)c1ccc(-n2cc(-c3ccccc3)cn2)nc1-c1nc2cc(C(F)(F)F)ncc2n1C [Example I-9] |  |  | 100 | 100 | Example I-9: logP (neutral): 3.92 ^1H-NMR(400.0 MHz, d6-DMSO): δ = |  |  |  |
|  | CCS(=O)(=O)c1ccc(-n2cc(-c3ccc(Cl)cc3)cn2)nc1-c1nc2cc(C(F)(F)F)ncc2n1C [Example I-10] |  |  | 100 |  | Example I-10: logP (neutral): 4.33 ^1H-NMR(400.0 MHz, d6-DMSO): δ = |  |  |  |
|  | CCS(=O)(=O)c1ccc(-n2cc(-c3ccc(F)cc3)cn2)nc1-c1nc2cc(C(F)(F)F)ncc2n1C [Example I-11] |  |  | 100 |  | Example I-11: logP (neutral): 4.17 ^1H-NMR(400.0 MHz, d6-DMSO): δ = |  |  |  |
|  | CCS(=O)(=O)c1ccc(-n2cc(-c3cccc(Br)c3)cn2)nc1-c1nc2cc(C(F)(F)F)ncc2n1C [Example I-12] | 100 |  | 100 | 100 | Example I-12: logP (neutral): 4.48 ^1H-NMR(400.0 MHz, d6-DMSO): δ = | 100 | 90 |  |
|  | CCS(=O)(=O)c1ccc(-n2ccc(-c3ccccc3Cl)n2)nc1-c1nc2cc(C(F)(F)F)ncc2n1C [Example I-13] |  |  | 100 |  | Example I-13: logP (neutral): 4.58 ^1H-NMR(400.0 MHz, d6-DMSO): δ = |  |  |  |
|  | CCS(=O)(=O)c1ccc(-n2ccc(-c3ccco3)n2)nc1-c1nc2cc(C(F)(F)F)ncc2n1C [Example I-14] |  |  |  |  | Example I-14: logP (neutral): 3.47 1H-NMR(601.6 MHz, d6-DMSO): □ = |  |  |  |
|  | CCS(=O)(=O)c1ccc(-n2ncn(-c3ccc(Br)cc3)c2=O)nc1-c1nc2cc(C(F)(F)F)ncc2n1C [Example I-16] | 100 | 80 | 100 | 100 |  | 100 |  |  |
|  | CCS(=O)(=O)c1ccc(-n2ncn(-c3ccc(Cl)cc3)c2=O)nc1-c1nc2cc(C(F)(F)F)ncc2n1C [Example I-19] | 100 | 80 | 100 | 100 | Example I-19: logP (neutral): 2.82 1H-NMR(400.0 MHz, d6-DMSO): □ = | 100 | 80 |  |
|  | CCS(=O)(=O)c1ccc(-n2cnn(-c3c(F)cccc3F)c2=O)nc1-c1nc2cc(C(F)(F)F)ncc2n1C [Example I-20] |  |  |  |  | Example I-20: logP (neutral): 3.13 1H-NMR(400.0 MHz, d6-DMSO): □ = |  |  |  |
|  | CCS(=O)(=O)c1ccc(-n2nnn(-c3ccc(Cl)cc3)c2=O)nc1-c1nc2cc(C(F)(F)F)ncc2n1C [Example I-21] | 100 |  | 100 | 100 | Example I-21: logP (neutral): 3.71: 1H-NMR(400.0 MHz, d6-DMSO): □ = | 80 |  |  |
|  | CCS(=O)(=O)c1ccc(-n2nc(C(F)(F)F)n(-c3ccccc3)c2=O)nc1-c1nc2cc(C(F)(F)F)ncc2n1C [Example I-22] |  |  | 100 | 100 |  |  |  |  |
|  | CCS(=O)(=O)c1ccc(-n2ccc(-c3cccc(Cl)c3)n2)nc1-c1nc2cc(C(F)(F)F)ncc2n1C [Example I-23] | 100 |  | 100 | 100 | Example I-23: logP (neutral): 4.64 1H-NMR(400.0 MHz, d6-DMSO): □ = | 100 |  |  |
|  | CCS(=O)(=O)c1ccc(-n2cc(Cl)c(-c3ccc(F)c(Cl)c3)n2)nc1-c1nc2cc(C(F)(F)F)ncc2n1C [Example I-25] |  |  | 100 |  | Example I-25: logP (neutral): 5.23 1H-NMR(400.0 MHz, d6-DMSO): □ = |  |  |  |
|  | CCS(=O)(=O)c1ccc(-n2cnc(-c3ccccn3)n2)nc1-c1nc2cc(C(F)(F)F)ncc2n1C [Example I-26] |  |  | 100 | 100 | Example I-26: logP (neutral): 2.43 1H-NMR(400.0 MHz, d6-DMSO): □ = |  |  | 90 |
|  | CCS(=O)(=O)c1ccc(-n2cnc(-c3cccnc3)n2)nc1-c1nc2cc(C(F)(F)F)ncc2n1C [Example I-27] |  |  | 100 | 100 | Example I-27: logP (neutral): 2.54 1H-NMR(400.0 MHz, d6-DMSO): □ = |  |  |  |
|  | CCS(=O)(=O)c1ccc(-c2cnn(-c3ccccc3F)c2)nc1-c1nc2cc(C(F)(F)F)ncc2n1C [Example I-28] | 100 |  | 100 | 100 | Example I-28: logP (neutral): 3.38 1H-NMR(400.0 MHz, d6-DMSO): □ = | 100 |  |  |
|  | CCS(=O)(=O)c1ccc(-c2cc(-c3ccccc3)no2)nc1-c1nc2cc(C(F)(F)F)ncc2n1C [Example I-31] |  |  |  | 100 | Example I-31: logP (neutral): 3.81 1H-NMR(400.0 MHz, d6-DMSO): □ = |  |  |  |
|  | CCS(=O)(=O)c1ccc(-n2cnn(-c3ccccc3F)c2=O)nc1-c1nc2cc(C(F)(F)F)ccc2n1C [Example I-34] |  |  | 100 | 100 |  |  |  |  |
| 3.16 | CCS(=O)(=O)c1ccc(-n2cnn(-c3ccccc3F)c2=O)nc1-c1cn2cnc(C(F)(F)F)cc2n1 [Example I-35, 4-{5-(Ethylsulfonyl)-6-[7-(trifluoromethyl)imidazo[1,2-c]pyrimidine-2-yl]pyridin-2-yl}-2-(2-fluorophenyl)-2,4-dihydro-3H-1,2,4-triazol-3-one] |  |  | 100 | 100 |  |  |  |  |
